Results published in PubChem BioAssay AID2060892 (Molecular Pharmacology Branch, DTP, NCI, 2025).

System: HOP-62 complex spheroids with HUVEC/MSC, viability
Assay: Anticancer human tumor HOP-62 cell line growth inhibition [RAS];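 further: spheroids exposed to agents for seven days before readout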;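 on viability, T/C: 100% = DMSO vehicle control viability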
Conditions: for IC50: curve of first compound; for viability, T/C: stronger effect = lower value
Summary of the method: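 Tumour cells grown as complex spheroids with HUVEC endothelial cells and mesenchymal stem cells, treated with RAS pathway inhibitor combinations. Each agent spans half-log steps from near clinical Cmax, or 10 microM where Cmax is unknown.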

[1] = second compound 0.000949 µM, first compound 0.0316 µM
[2] = second compound 0.000949 µM, first compound 0.1 µM
[3] = second compound 0.000949 µM, first compound 0.316 µM
[4] = second compound 0.000949 µM, first compound 1 µM
[5] = second compound 0.000949 µM, first compound 3.16 µM
[6] = second compound 0.000949 µM, first compound 10 µM
[7] = second compound 0.003 µM, first compound 0.0316 µM
[8] = second compound 0.003 µM, first compound 0.1 µM
[9] = second compound 0.003 µM, first compound 0.316 µM
[10] = second compound 0.003 µM, first compound 1 µM
[11] = second compound 0.003 µM, first compound 3.16 µM
[12] = second compound 0.003 µM, first compound 10 µM
[13] = second compound 0.00949 µM, first compound 0.0316 µM
[14] = second compound 0.00949 µM, first compound 0.1 µM
[15] = second compound 0.00949 µM, first compound 0.316 µM
[16] = second compound 0.00949 µM, first compound 1 µM
[17] = second compound 0.00949 µM, first compound 3.16 µM
[18] = second compound 0.00949 µM, first compound 10 µM
[19] = second compound 0.03 µM, first compound 0.0316 µM
[20] = second compound 0.03 µM, first compound 0.1 µM
[21] = second compound 0.03 µM, first compound 0.316 µM
[22] = second compound 0.03 µM, first compound 1 µM
[23] = second compound 0.03 µM, first compound 3.16 µM
[24] = second compound 0.03 µM, first compound 10 µM
[25] = second compound 0.0949 µM, first compound 0.0316 µM
[26] = second compound 0.0949 µM, first compound 0.1 µM
[27] = second compound 0.0949 µM, first compound 0.316 µM
[28] = second compound 0.0949 µM, first compound 1 µM
[29] = second compound 0.0949 µM, first compound 3.16 µM
[30] = second compound 0.0949 µM, first compound 10 µM
[31] = second compound 0.3 µM, first compound 0.0316 µM
[32] = second compound 0.3 µM, first compound 0.1 µM
[33] = second compound 0.3 µM, first compound 0.316 µM
[34] = second compound 0.3 µM, first compound 1 µM
[35] = second compound 0.3 µM, first compound 3.16 µM
[36] = second compound 0.3 µM, first compound 10 µM

SMILES: CC(C)NCC(C(=O)N1CCN(c2ncnc3c2C(C)CC3O)CC1)c1ccc(Cl)cc1 (stereo unspecified) + CCn1c(-c2cccnc2C(C)OC)c2c3cc(ccc31)N1CCOC(CC(NC(=O)C(C(C)C)N(C)C(=O)C3(F)CCN(C(=O)C#CC(C)(C)N(C)C)CC3)C(=O)N3CCCC(N3)C(=O)OCC(C)(C)C2)C1
- IC50 (second compound 0.000949 µM): 3570 nM
- IC50 (second compound 0.003 µM): 2210 nM
- IC50 (second compound 0.00949 µM): 1650 nM
- IC50 (second compound 0.03 µM): 1120 nM
- IC50 (second compound 0.0949 µM): 1170 nM
- IC50 (second compound 0.3 µM): 742 nM
- viability, T/C [1]: 98.8%
- viability, T/C [2]: 119%
- viability, T/C [3]: 65.4%
- viability, T/C [4]: 76.4%
- viability, T/C [5]: 61.6%
- viability, T/C [6]: 20.3%
- viability, T/C [7]: 101%
- viability, T/C [8]: 105%
- viability, T/C [9]: 65.3%
- viability, T/C [10]: 67.7%
- viability, T/C [11]: 47.1%
- viability, T/C [12]: 21.2%
- viability, T/C [13]: 81.7%
- viability, T/C [14]: 100%
- viability, T/C [15]: 80.1%
- viability, T/C [16]: 58.9%
- viability, T/C [17]: 38.5%
- viability, T/C [18]: 22%
- viability, T/C [19]: 122%
- viability, T/C [20]: 83.4%
- viability, T/C [21]: 72%
- viability, T/C [22]: 61.8%
- viability, T/C [23]: 28.3%
- viability, T/C [24]: 23%
- viability, T/C [25]: 79%
- viability, T/C [26]: 80.4%
- viability, T/C [27]: 69%
- viability, T/C [28]: 56.2%
- viability, T/C [29]: 25.5%
- viability, T/C [30]: 21.1%
- viability, T/C [31]: 73.2%
- viability, T/C [32]: 78.9%
- viability, T/C [33]: 59.3%
- viability, T/C [34]: 47%
- viability, T/C [35]: 26.4%
- viability, T/C [36]: 16.6%

SMILES: CC(C)n1nc(-c2ccc3oc(N)nc3c2)c2c(N)ncnc21 + CCn1c(-c2cccnc2C(C)OC)c2c3cc(ccc31)N1CCOC(CC(NC(=O)C(C(C)C)N(C)C(=O)C3(F)CCN(C(=O)C#CC(C)(C)N(C)C)CC3)C(=O)N3CCCC(N3)C(=O)OCC(C)(C)C2)C1
- IC50 (second compound 0.000949 µM): 31.6 nM
- IC50 (second compound 0.003 µM): 11.8 nM
- IC50 (second compound 0.00949 µM): 10.9 nM
- IC50 (second compound 0.03 µM): 17.3 nM
- IC50 (second compound 0.0949 µM): 7 nM
- IC50 (second compound 0.3 µM): 6.72 nM
- viability, T/C (second compound 0.000949 µM, first compound 0.000316 µM): 118%
- viability, T/C (second compound 0.000949 µM, first compound 0.001 µM): 107%
- viability, T/C (second compound 0.000949 µM, first compound 0.00316 µM): 64.2%
- viability, T/C (second compound 0.000949 µM, first compound 0.01 µM): 74.7%
- viability, T/C [1]: 55.6%
- viability, T/C [2]: 30.6%
- viability, T/C (second compound 0.003 µM, first compound 0.000316 µM): 105%
- viability, T/C (second compound 0.003 µM, first compound 0.001 µM): 81%
- viability, T/C (second compound 0.003 µM, first compound 0.00316 µM): 58.8%
- viability, T/C (second compound 0.003 µM, first compound 0.01 µM): 56.3%
- viability, T/C [7]: 45.7%
- viability, T/C [8]: 25.4%
- viability, T/C (second compound 0.00949 µM, first compound 0.000316 µM): 94.9%
- viability, T/C (second compound 0.00949 µM, first compound 0.001 µM): 64%
- viability, T/C (second compound 0.00949 µM, first compound 0.00316 µM): 65.3%
- viability, T/C (second compound 0.00949 µM, first compound 0.01 µM): 53.4%
- viability, T/C [13]: 44.5%
- viability, T/C [14]: 26.1%
- viability, T/C (second compound 0.03 µM, first compound 0.000316 µM): 80.7%
- viability, T/C (second compound 0.03 µM, first compound 0.001 µM): 75.6%
- viability, T/C (second compound 0.03 µM, first compound 0.00316 µM): 71.1%
- viability, T/C (second compound 0.03 µM, first compound 0.01 µM): 67.7%
- viability, T/C [19]: 30.1%
- viability, T/C [20]: 30.6%
- viability, T/C (second compound 0.0949 µM, first compound 0.000316 µM): 85.7%
- viability, T/C (second compound 0.0949 µM, first compound 0.001 µM): 67.8%
- viability, T/C (second compound 0.0949 µM, first compound 0.00316 µM): 61%
- viability, T/C (second compound 0.0949 µM, first compound 0.01 µM): 52.2%
- viability, T/C [25]: 25.6%
- viability, T/C [26]: 30%
- viability, T/C (second compound 0.3 µM, first compound 0.000316 µM): 75.7%
- viability, T/C (second compound 0.3 µM, first compound 0.001 µM): 77.8%
- viability, T/C (second compound 0.3 µM, first compound 0.00316 µM): 59.8%
- viability, T/C (second compound 0.3 µM, first compound 0.01 µM): 45.3%
- viability, T/C [31]: 32.2%
- viability, T/C [32]: 30.6%

SMILES: C[C@@H](NC(=O)c1ncnc(N)c1Cl)c1ncc(C(=O)Nc2cc(C(F)(F)F)c(Cl)cn2)s1 + CCn1c(-c2cccnc2C(C)OC)c2c3cc(ccc31)N1CCOC(CC(NC(=O)C(C(C)C)N(C)C(=O)C3(F)CCN(C(=O)C#CC(C)(C)N(C)C)CC3)C(=O)N3CCCC(N3)C(=O)OCC(C)(C)C2)C1
- IC50 (second compound 0.000949 µM): > 10000 nM
- IC50 (second compound 0.003 µM): > 10000 nM
- IC50 (second compound 0.00949 µM): > 10000 nM
- IC50 (second compound 0.03 µM): > 10000 nM
- IC50 (second compound 0.0949 µM): > 10000 nM
- IC50 (second compound 0.3 µM): > 10000 nM
- viability, T/C [1]: 113%
- viability, T/C [2]: 93%
- viability, T/C [3]: 86.2%
- viability, T/C [4]: 109%
- viability, T/C [5]: 108%
- viability, T/C [6]: 65.3%
- viability, T/C [7]: 115%
- viability, T/C [8]: 103%
- viability, T/C [9]: 87.9%
- viability, T/C [10]: 108%
- viability, T/C [11]: 87%
- viability, T/C [12]: 67.7%
- viability, T/C [13]: 95%
- viability, T/C [14]: 94.8%
- viability, T/C [15]: 85.3%
- viability, T/C [16]: 96.2%
- viability, T/C [17]: 77.7%
- viability, T/C [18]: 70.6%
- viability, T/C [19]: 96.8%
- viability, T/C [20]: 89.6%
- viability, T/C [21]: 95.8%
- viability, T/C [22]: 82.4%
- viability, T/C [23]: 64.5%
- viability, T/C [24]: 76%
- viability, T/C [25]: 94.7%
- viability, T/C [26]: 90.8%
- viability, T/C [27]: 81.7%
- viability, T/C [28]: 80.3%
- viability, T/C [29]: 68.1%
- viability, T/C [30]: 75.7%
- viability, T/C [31]: 86.3%
- viability, T/C [32]: 83.9%
- viability, T/C [33]: 77.5%
- viability, T/C [34]: 74.4%
- viability, T/C [35]: 68.9%
- viability, T/C [36]: 71.2%
